Results as given in patent US10889560B2, “4-amino-2-pyrido-bicyclic pyrimidines and use thereof as topoisomerase II inhibitors” (FONDAZIONE ISTITUTO ITALIANO DI TECNOLOGIA, priority 2016, dated 2021).
≈ marks a conversion by molar mass, not a printed value.

How the values were obtained:
Kinetic solubility = assay type: physicochemical; conditions: kinetic from dmso stock
[1] = Stability in mouse plasma; assay type: in vitro ADME; conditions: read-out: Stability (t 1/2) Mouse plasma
[2] = Stability in mouse liver microsomes; assay type: in vitro ADME; conditions: read-out: Stability (t 1/2) Mouse liver microsomes
[3] = molecular target: human type II topoisomerase (topo II); test: Topo II inhibitory activity; assay type: biochemical
DU145 = test: Cell activity (cancer cell proliferation), DU145; assay type: cell-based; conditions: Homo sapiens, DU-145
A549 = test: Cell activity (cancer cell proliferation), A549; assay type: cell-based; conditions: Homo sapiens
Thermodynamic solubility = assay type: physicochemical; conditions: thermodynamic from solid; Termodinamic
HeLa = test: Cell activity (cancer cell proliferation), HeLa; assay type: cell-based; conditions: Homo sapiens
MCF7 = test: Cell activity (cancer cell proliferation), MCF7; assay type: cell-based; conditions: Homo sapiens
A375 = test: Cell activity (cancer cell proliferation), A375; assay type: cell-based; conditions: Homo sapiens, A-375
G361 = test: Cell activity (cancer cell proliferation), G361; assay type: cell-based; conditions: Homo sapiens, G-361

Compound | solubility kinetic (Kinetic solubility) | half-life [1] | IC50 [3] | IC50 (DU145) | IC50 (A549) | other results
N[C@H]1CCc2nc(-c3ccncc3)nc(Nc3cccc(F)c3)c2C1 (single isomer, unassigned) [Example E1.3] | > 250 µM | > 2 h |  |  |  | 
NC1CCc2nc(-c3ccncc3)nc(Nc3cccc(F)c3)c2C1 (stereo not drawn) [Example E1.1, N4-(3-fluorophenyl)-2-(4-pyridyl)-5,6,7,8-tetrahydroquinazoline-4,6-diamine] | > 250 µM | > 2 h |  |  |  | half-life [2]: > 1 h
Nc1cccc(Nc2nc(-c3ccncc3)nc3c2CC(N)CC3)c1 (stereo not drawn) [Example E1.6, N4-(3-aminophenyl)-2-(4-pyridyl)-5,6,7,8-tetrahydroquinazoline-4,6-diamine] |  |  | > 500 µM | 37.4 µM | 75.9 µM | 
NC1CCc2nc(-c3ccncc3)nc(Nc3ccc(O)cc3)c2C1 (stereo not drawn) [Example E1.9, 4-[[6-amino-2-(4-pyridyl)-5,6,7,8-tetrahydroquinazolin-4-yl]amino]phenol] |  |  | > 500 µM | 20.8 µM | 74.5 µM | 
NC1CCc2nc(-c3cccnc3)nc(Nc3cccc(F)c3)c2C1 (stereo not drawn) [Example E1.10, N4-(3-fluorophenyl)-2-(3-pyridyl)-5,6,7,8-tetrahydroquinazoline-4,6-diamine] |  | > 2 h |  | 25.4 µM | 21.3 µM | 
COc1cccc(Nc2nc(-c3ccncc3)nc3c2CNCC3)c1 [Example E2.2, N-(3-methoxyphenyl)-2-(4-pyridyl)-5,6,7,8-tetrahydropyrido[4,3-d]pyrimidin-4-amine] | > 250 µM | > 2 h | 120 ± 13 µM | 25 µM | 35.3 µM | 
CNc1cccc(Nc2nc(-c3ccncc3)nc3c2CNCC3)c1 [Example E2.4, N3-methyl-N1-[2-(4-pyridyl)-5,6,7,8-tetrahydropyrido[4,3-d]pyrimidin-4-yl]benzene-1,3-diamine] | > 250 µM | > 2 h | 160 ± 20 µM | 45 µM | 61.9 µM | 
Oc1ccc(Nc2nc(-c3ccncc3)nc3c2CNCC3)cc1 [Example E2.6, 4-[[2-(4-pyridyl)-5,6,7,8-tetrahydropyrido[4,3-d]pyrimidin-4-yl]amino]phenol] |  |  | 200 ± 15 µM |  |  | 
Nc1ccc2nc(-c3ccncc3)nc(Nc3cccc(F)c3)c2c1 [Example E3, N4-(3-fluorophenyl)-2-(4-pyridyl)quinazoline-4,6-diamine] | 17 µM (≈ 5.63 µg/mL) | 1.48 h | 80 ± 15 µM | 7.7 µM | 9.2 µM | IC50 (HeLa): 4.7 µM; IC50 (MCF7): 8.6 µM; IC50 (A375): 8.3 µM; IC50 (G361): 10.4 µM; solubility (Thermodynamic solubility): 0.2 µM (≈ 0.0663 µg/mL); half-life [2]: 0.367 h
Fc1cccc(Nc2nc(-c3ccncc3)nc3ccccc23)c1 [Example E6, N-(3-fluorophenyl)-2-(4-pyridyl)quinazolin-4-amine] |  |  |  |  |  | Activity Topo II IC50 (μM) [3]: inactive

More lines, main results first:

solubility kinetic (Kinetic solubility) | half-life [1] | IC50 [3] | IC50 (DU145) | IC50 (A549) | Compound | other results
> 250 µM | > 2 h |  |  |  | N[C@@H]1CCc2nc(-c3ccncc3)nc(Nc3cccc(F)c3)c2C1 (single isomer, unassigned) [Example E1.2] | 
249 µM (≈ 82.5 µg/mL) | > 2 h | 200 ± 20 µM | 12.3 µM | 14.4 µM | Cc1cccc(Nc2nc(-c3ccncc3)nc3c2CC(N)CC3)c1 (stereo not drawn) [Example E1.4, N4-(m-tolyl)-2-(4-pyridyl)-5,6,7,8-tetrahydroquinazoline-4,6-diamine] | 
> 250 µM | > 2 h |  |  | 26.2 µM | COc1cccc(Nc2nc(-c3ccncc3)nc3c2CC(N)CC3)c1 (stereo not drawn) [Example E1.5, N4-(3-methoxyphenyl)-2-(4-pyridyl)-5,6,7,8-tetrahydroquinazoline-4,6-diamine] | 
 |  | > 200 µM | 24.5 µM | 33.4 µM | CNc1cccc(Nc2nc(-c3ccncc3)nc3c2CC(N)CC3)c1 (stereo not drawn) [Example E1.7, N4-[3-(methylamino)phenyl]-2-(4-pyridyl)-5,6,7,8-tetrahydroquinazoline-4,6-diamine] | 
> 250 µM | > 2 h |  |  |  | NC1CCc2nc(-c3ccncc3)nc(Nc3ccc(F)cc3)c2C1 (stereo not drawn) [Example E1.8, N4-(4-fluorophenyl)-2-(4-pyridyl)-5,6,7,8-tetrahydroquinazoline-4,6-diamine] | 
> 250 µM | > 2 h | 3.5 ± 0.5 µM |  |  | CN(C)c1ccc(Nc2nc(-c3ccncc3)nc3c2CC(N)CC3)cc1 (stereo not drawn) [Example E1.11, N4-[4-(dimethylamino)phenyl]-2-(4-pyridyl)-5,6,7,8-tetrahydroquinazoline-4,6-diamine] | solubility (Thermodynamic solubility): 452 µM (≈ 163 µg/mL); half-life [2]: > 1 h
> 250 µM | > 2 h | 25 ± 5 µM | 32.9 µM | 23.7 µM | Fc1cccc(Nc2nc(-c3ccncc3)nc3c2CNCC3)c1 [Example E2.1, N-(3-fluorophenyl)-2-(4-pyridyl)-5,6,7,8-tetrahydropyrido[4,3-d]pyrimidin-4-amine] | IC50 (HeLa): 32.3 µM; IC50 (MCF7): 33.4 µM; IC50 (A375): 29.6 µM; IC50 (G361): 6.1 µM; solubility (Thermodynamic solubility): 96 µM (≈ 30.9 µg/mL); half-life [2]: 0.65 h
> 250 µM | > 2 h | 150 ± 18 µM | 85.2 µM | 513 µM | Nc1cccc(Nc2nc(-c3ccncc3)nc3c2CNCC3)c1 [Example E2.3, N1-[2-(4-pyridyl)-5,6,7,8-tetrahydropyrido[4,3-d]pyrimidin-4-yl]benzene-1,3-diamine] | 
> 250 µM | > 2 h | 140 ± 20 µM | 42.5 µM | 40.8 µM | CN(C)c1cccc(Nc2nc(-c3ccncc3)nc3c2CNCC3)c1 [Example E2.5, N3,N3-dimethyl-N1-[2-(4-pyridyl)-5,6,7,8-tetrahydropyrido[4,3-d]pyrimidin-4-yl]benzene-1,3-diamine] | 
> 250 µM | > 2 h | 4.5 ± 1 µM |  |  | Fc1ccccc1Nc1nc(-c2ccncc2)nc2c1CNCC2 [Example E2.7, N-(2-fluorophenyl)-2-(4-pyridyl)-5,6,7,8-tetrahydropyrido[4,3-d]pyrimidin-4-amine] | solubility (Thermodynamic solubility): 596 µM (≈ 192 µg/mL); half-life [2]: 0.5 h
 |  | > 200 µM |  |  | Fc1cccc(Nc2nc(-c3ccncc3)nc3ccncc23)c1 [Example E4, N-(3-fluorophenyl)-2-(4-pyridyl)pyrido[4,3-d]pyrimidin-4-amine] | 
